Test results from patent US5968949A, “Substituted hydroisoquinoline derivatives and their use as pharmaceuticals” (SmithKline Beecham S.p.A., priority 1995, dated 1999).

Test system: delta receptor
Assay: Radioligand binding assay, [3H]-DADLE in mouse brain membranes
Conditions: stated in words after the delta affinity range
Protocol: The activity of the compounds of the present invention as selective delta ligands is determined in radioligand binding assays as described below.
Mouse brain membranes were prepared as described by Kosterlitz (Br. J. Pharmacol., 1981, 73, 939.). The binding of the preferential delta ligand [^3 H]-[D-Ala^2,D-Leu^5 ]-enkephalin (DADLE) was evaluated at its KD concentration (1.3 nM) in presence of 40 nM of the unlabelled mu ligand [D-Ala^2, MePhe^4, Gly-ol5]-enkephalin (DAMGO). The binding of the mu ligand [^3 H]-DAMGO (Eur. J. Pharmacol., 1989, 166, 213) and of the kappa ligand [^3 H]-U69593 (Excerpta Medica, 1990, 211) were carried out at 0.5 nM. The non-specific binding was determined in presence of naloxone (10 μM) for all tritiated ligands. Binding data were expressed as percentage of inhibition and fitted the following equation: f(x)=100.X/(IC50 +X) where X are cold drug concentration values. The IC50 obtained were used to calculate the inhibitory constants (Ki) accordingly to the Cheng and Prusoff relation (Biochem. Pharmacol., 1973, 22, 3099).

CN1CC[C@]2(c3cccc(O)c3)CC(c3ccccc3)=CC[C@H]2C1 (racemic) [Example 3, (±)-trans-4a-(3-Hydroxyphenyl)-2-methyl-6-phenyl-1,2,3,4,4a,5,8,8a-octahydroisoquinoline]
potency rank among the exemplified compounds: most potent of the exemplified compounds
